The source of these data is US10442796B2, “2,3,5-substituted thiophene compound as protein kinase inhibitor” (KOREA INSTITUTE OF SCIENCE AND TECHNOLOGY, priority 2016, dated 2019).

Test in all cases: Growth inhibitory activity against Ba/F3 cell line
Format in all cases: cell-based

In one experiment the test system is Parental Ba/F3 cells. Conditions: BaF3; Parental Ba/F3 with mouse IL-3 1 ng/mL; 72 hours; cell titer glo. The procedure: A Ba/F3 cell line expressing an FLT3 mutation gene was cultured in a culture solution including 90% RPMI, 10% FBS, and an antibiotic (Welgene). 100 uL of the Ba/F3 cell line was put into each of 5,000 wells of a TC-treated 96 well plate (SPL), and then 1 uL of a test compound diluted in dimethylsulfoxide (diluted for each 3 paint from a concentration of 1 mM, total 10 concentrations) was each injected thereinto. Thereafter, the resulting cell lines were incubated in a cell culture incubator for 72 hours. 50 uL of a cell titer glo (Promega) solution was added thereto, the resulting mixture was stored at room temperature for 10 minutes, and then the light emission intensity was measured by using a reader (Envision, PerkinElmer). The light emission intensity was shown as a graph for each final concentration of the test compound, and the GI50 value was obtained by using a Prism 5.0 (GraphPad) software.
A parental Ba/F3 cell line having no FLT3 mutation gene was cultured by using a culture solution supplemented with mouse IL-3 (R&D Systems), such that a final concentration became 1 ng/mL in the culture solution including 90% RPMI, 10% FBS, and an antibiotic (Welgene). The activity was measured by a method which is the same as described above.
(In general: Cellular ATP, detected with luciferase, serves as a proxy for viable cell number.)

For a further experiment, the target named is T1, FLT3-ITD Ba/F3 cells (Homo sapiens, UniProt P36888, cells depend on it, form not given).
T1 sequence (P36888 1-993): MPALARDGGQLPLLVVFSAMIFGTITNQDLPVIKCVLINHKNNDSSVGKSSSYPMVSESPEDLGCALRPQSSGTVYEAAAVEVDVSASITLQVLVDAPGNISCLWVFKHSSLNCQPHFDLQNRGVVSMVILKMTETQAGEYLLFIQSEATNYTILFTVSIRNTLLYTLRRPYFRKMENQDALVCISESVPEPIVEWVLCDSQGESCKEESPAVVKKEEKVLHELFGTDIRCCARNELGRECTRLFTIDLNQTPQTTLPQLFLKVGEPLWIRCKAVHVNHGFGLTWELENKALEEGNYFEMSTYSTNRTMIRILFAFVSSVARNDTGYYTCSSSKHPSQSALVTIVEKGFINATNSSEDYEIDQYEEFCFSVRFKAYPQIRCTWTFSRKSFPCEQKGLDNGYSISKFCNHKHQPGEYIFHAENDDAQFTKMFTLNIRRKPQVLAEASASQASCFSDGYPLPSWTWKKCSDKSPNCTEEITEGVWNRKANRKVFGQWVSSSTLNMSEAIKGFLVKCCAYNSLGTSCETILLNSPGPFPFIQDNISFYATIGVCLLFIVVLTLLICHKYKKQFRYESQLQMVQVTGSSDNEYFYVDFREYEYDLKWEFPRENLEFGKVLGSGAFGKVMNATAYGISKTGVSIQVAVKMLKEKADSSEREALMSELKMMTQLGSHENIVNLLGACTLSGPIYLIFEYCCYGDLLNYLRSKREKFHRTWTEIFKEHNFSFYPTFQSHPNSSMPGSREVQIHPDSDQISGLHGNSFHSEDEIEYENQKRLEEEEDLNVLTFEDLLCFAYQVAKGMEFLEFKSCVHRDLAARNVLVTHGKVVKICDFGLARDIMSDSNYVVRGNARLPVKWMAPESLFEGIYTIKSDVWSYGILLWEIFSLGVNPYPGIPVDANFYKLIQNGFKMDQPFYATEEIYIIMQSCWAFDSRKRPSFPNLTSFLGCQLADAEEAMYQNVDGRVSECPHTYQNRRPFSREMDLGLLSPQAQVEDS
To be noted: Ba/F3 expressing FLT3-ITD; 72 hours; cell titer glo; read-out: IC50 (uM) FLT3-ITD. In outline: (§1)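 Ba/F3 cells carrying FLT3 mutants grown in RPMI with 10% FBS, exposed 72 h to ten 3-fold dilutions of compound starting from 1 mM DMSO stock. Viability read by CellTiter-Glo luminescence; GI50 fitted from signal versus final concentration.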

A further experiment addresses T2, FLT3-D835Y Ba/F3 cells (Homo sapiens, UniProt P36888, D835Y, cells depend on it).
T2 sequence (P36888 1-993 D835Y): T1 sequence (P36888 1-993) with D835Y
To be noted: Ba/F3 expressing FLT3-D835Y; 72 hours; cell titer glo; read-out: IC50 (uM) FLT3-D835Y. In outline: as §1

The structures appear in SMILES notation. Substitutions are numbered along the chain they refer to. Counter-ions that a name gives are not always drawn. Bounds are passed on as bounds.

Consider `NC(=O)Nc1cc(C#Cc2ccnc(F)c2)sc1C(=O)N[C@H]1CCCNC1` [Example 21, (S)-5-((2-fluoropyridin-4-yl)ethynyl)-N-(piperidin-3-yl)-3-ureidothiophene-2-carboxamide], for which, in the experiment with Parental Ba/F3 cells, the IC50 (commonly the concentration needed to halve the response being measured) stood at 2.78 µM. Further, the GI50 is under 0.005 µM at FLT3-ITD Ba/F3 cells and 0.041 µM on FLT3-D835Y Ba/F3 cells.
For `NC(=O)Nc1cc(C#Cc2cccc(F)c2)sc1C(=O)N[C@H]1CCCNC1` [Example 22, (S)-5-((3-fluorophenyl)ethynyl)-N-(piperidin-3-yl)-3-ureidothiophene-2-carboxamide], in that order: 3.65 µM, 0.007 µM and 0.052 µM.
The like results for `CS(=O)(=O)N1CCC(n2cc(C#Cc3cc(NC(N)=O)c(C(=O)N[C@H]4CCCNC4)s3)cn2)CC1` [Example 23, (S)-5-((1-(1-(methylsulfonyl)piperidin-4-yl)-1H-pyrazol-4-yl)ethynyl)-N-(piperidin-3-yl)-3-ureidothiophene-2-carboxamide] were, in that order, over 5 µM, 0.007 µM and 0.18 µM.
Take `Cc1ccc(C#Cc2cc(NC(N)=O)c(C(=O)N[C@H]3CCCNC3)s2)cc1` [Example 24, (S)—N-(piperidin-3-yl)-5-(p-tolylethynyl)-3-ureidothiophene-2-carboxamide]: the IC50 in the experiment with Parental Ba/F3 cells was 1.29 µM. The GI50 on FLT3-ITD Ba/F3 cells was 0.005 µM; on FLT3-D835Y Ba/F3 cells it was 0.039 µM.
For `Cn1cc(C#Cc2cc(NC(N)=O)c(C(=O)NC3CCNC3)s2)cn1` (stereo not drawn) [Example 39, 5-((1-methyl-1H-pyrazol-4-yl)ethynyl)-N-(pyrrolidin-3-yl)-3-ureidothiophene-2-carboxamide trifluoroacetate], in that order: over 100 µM, 3.73 µM and 34 µM.
The like results for `NC(=O)Nc1cc(C#Cc2cccc(F)c2)sc1C(=O)NC1CCNC1` (stereo not drawn) [Example 40, 5-((3-fluorophenyl)ethynyl)-N-(pyrrolidin-3-yl)-3-ureidothiophene-2-carboxamide] were, in that order, 14.9 µM, 0.164 µM and 0.925 µM.
The like results for `Cn1cc(C#Cc2cc(NC(N)=O)c(C(=O)N[C@H]3CCCCNC3)s2)cn1` [Example 41, (S)—N-(azepan-3-yl)-5-((1-methyl-1H-pyrazol-4-yl)ethynyl)-3-ureidothiophene-2-carboxamide trifluoroacetate] were, in that order, 3.69 µM, 0.013 µM and 0.092 µM.
In the case of `NC(=O)Nc1cc(C#Cc2cn[nH]c2)sc1C(=O)N[C@H]1CCCCNC1` [Example 42, (S)-5-((1H-pyrazol-4-yl)ethynyl)-N-(azepan-3-yl)-3-ureidothiophene-2-carboxamide trifluoroacetate], the IC50 with Parental Ba/F3 cells stood at 54.4 µM. The GI50 at FLT3-ITD Ba/F3 cells was found to be 0.137 µM; on FLT3-D835Y Ba/F3 cells, 4.01 µM.
As to `CCn1cc(C#Cc2cc(NC(N)=O)c(C(=O)N[C@H]3CCCCNC3)s2)cn1` [Example 43, (S)—N-(azepan-3-yl)-5-((l-ethyl-1H-pyrazol-4-yl)ethynyl)-3-ureidothiophene-2-carboxamide trifluoroacetate], the IC50 in the experiment with Parental Ba/F3 cells was 4.1 µM. Also, the figures for the GI50 on FLT3-ITD Ba/F3 cells and at FLT3-D835Y Ba/F3 cells were 0.01 µM and 0.3 µM, respectively.
For `CC(C)n1cc(C#Cc2cc(NC(N)=O)c(C(=O)N[C@H]3CCCCNC3)s2)cn1` [Example 44, (S)—N-(azepan-3-yl)-5-((1-isopropyl-1H-pyrazol-4-yl)ethynyl)-3-ureidothiophene-2-carboxamide trifluoroacetate], in that order: 2.45 µM, 0.006 µM and 0.216 µM.
The like results for `COCCn1cc(C#Cc2cc(NC(N)=O)c(C(=O)N[C@H]3CCCCNC3)s2)cn1` [Example 45, (S)—N-(azepan-3-yl)-5-((1-(2-methoxyethyl)-1H-pyrazol-4-yl)ethynyl)-3-ureidothiophene-2-carboxamide trifluoroacetate] were, in that order, 16.8 µM, 0.038 µM and 0.841 µM.
The like results for `NC(=O)Nc1cc(C#Cc2cnn(C3CCOCC3)c2)sc1C(=O)N[C@H]1CCCCNC1` [Example 46, (S)—N-(azepan-3-yl)-5-((1-(tetrahydro-2H-pyran-4-yl)-1H-pyrazol-4-yl)ethynyl)-3-ureidothiophene-2-carboxamide trifluoroacetate] were, in that order, 0.3 µM, 0.003 µM and 0.042 µM.
For the compound `CS(=O)(=O)N1CCC(n2cc(C#Cc3cc(NC(N)=O)c(C(=O)N[C@H]4CCCCNC4)s3)cn2)CC1` [Example 47, (S)—N-(azepan-3-yl)-5-((1-(1-(methylsulfonyl)piperidin-4-yl)-1H-pyrazol-4-yl)ethynyl)-3-ureidothiophene-2-carboxamide trifluoroacetate], in the experiment on Parental Ba/F3 cells, the IC50 is over 5 µM. Also, the GI50 was determined as 0.027 µM at FLT3-ITD Ba/F3 cells and 0.533 µM at FLT3-D835Y Ba/F3 cells.
For `NC(=O)Nc1cc(C#Cc2ccsc2)sc1C(=O)N[C@H]1CCCCNC1` [Example 48, (S)—N-(azepan-3-yl)-5-(thiophen-3-ylethynyl)-3-ureidothiophene-2-carboxamide trifluoroacetate], in that order: 1.59 µM, 0.005 µM and 0.067 µM.
Take `CC(=O)N1CCC(n2cc(C#Cc3cc(NC(N)=O)c(C(=O)N[C@H]4CCCCNC4)s3)cn2)CC1` [Example 49]: the concentration for half-maximal inhibition (IC50) in the experiment with Parental Ba/F3 cells is over 5 µM. Moreover, the GI50 on FLT3-ITD Ba/F3 cells came to 0.017 µM; at FLT3-D835Y Ba/F3 cells, 0.437 µM.
The like results for `NC(=O)Nc1cc(C#Cc2cccc(F)c2)sc1C(=O)N[C@H]1CCCCNC1` [Example 50, (S)—N-(azepan-3-yl)-5-((3-fluorophenyl)ethynyl)-3-ureidothiophene-2-carboxamide] were, in that order, 7.8 µM, 0.023 µM and 0.228 µM.
